Laboratory results published in US5969174A, “Competitive inhibitors of glyoxalase I and method of generating such competitive inhibitors inside tumor cells” (priority 1998, dated 1999).

Experiments:
L1210 cells = assay: Cell permeability / intracellular appearance of enediol analog in L1210 cells; assay type: in vitro ADME, murine; conditions: L1210 cells
Experimental: In order to understand the mechanism of intracellular delivery of the enediol analogs, suspensions of L1210 cells were separately incubated with the diacid 2 and with the corresponding diethyl ester 2(Et)2. The rate of appearance of these species in the intracellular fraction was then monitored as a function of time by reverse-phase HPLC (FIG. 4). […] After 90 minutes, the concentration of 2 decreased, possibly due to a combination of factors including (a) 10-20% cell death over the course of the experiment, (b) hydrolytic deethylation of extracellular 2(Et)2, and (c) GlxII-catalyzed decarbamoylation of intracellular 2.
To suspensions of L1210 cells (~1.5(10^6 cells/ml) in RPMI 1640 medium, containing 10% heat-inactivated fetal calf serum, gentamycin (10 μg/ml) and L-glutamate, at 37° C., were added fixed concentrations of 2a. Aliquots (1 ml) were removed from the cell suspension as a function of time, overlaid onto 0.4 ml of silicone oil (SF-1250 silicone fluids, General Electric Co., Silicone Products Division, Waterford, N.Y.) contained in an eppendorf centrifuge tube and centrifuged at 11,000×g (15 min) at 25° C. The supernatant and silicone oil were decanted from the cell pellet and residual oil removed from the inside of the centrifuge tube with a cotton swab. To the pellet was added 1 ml 70% ethanol in water and the suspension sonicated for 5 minutes. The denatured protein was sedimented by centrifugation (11,000×g, 15 min) and the clear supernatant was removed. The supernatant was brought to dryness under a stream of argon, and the resulting residue was fractionated by reverse-phase HPLC (Waters μBondapak C18, 0.78(30 cm), using a mobile phase composed of methanol:water (1:1) containing 0.25% acetic acid at a flow rate of 2 ml/min. The integrated intensity of the peak corresponding S-(N-p-chlorophenyl-N-hydroxycarbamoyl) glutathione was determined at λ=260 nm. Concentrations were extrapolated from standard curves that were linear in the range 0.1 to 4.0 nmoles (r=0.997).

human erythrocyte GlxI = conditions: FIG. 8; read-out: Ki, tight-binding competitive inhibitor of human glyoxalase I; cited from earlier work
[1] = n-octanol/water partition coefficient
[2] = Acyl-interchange reaction with glutathione in a cell-free system; assay type: physicochemical
Experimental: In principle, an acyl-interchange reaction might serve as the basis of an improved prodrug strategy, provided that the acylating reagent diffuses rapidly across cell membranes and then reacts rapidly with intracellular glutathione to give the enediol analog. Three N-hydroxycarbamate thioethyl esters (2(a-c)) and the corresponding sulfoxides (3(a-c)) were prepared (FIG. 7) and their rates of acyl-interchange with glutathione in a cell free system evaluated (Table II). Sulfoxidation of N,N-di-n-propylcarbamate thioalkyl esters activates these species for acyl-interchange with glutathione. […] The N--OH function appears to inductively activate the sulfoxides for acyl-interchange, as the rate constant for 3a exceeds that of the corresponding N--CH3 derivative 3c by 13-fold. The products of the interchange reactions were confirmed as the corresponding enediol analogs, on the basis that their UV spectra and their migratory properties on a reverse-phase C18 column were identical with those of authentic samples of enediol analog.
Second order rate constants for the
acyl-interchange reactions between glutathione and the list thioesters
CH3 CH2 XC(O)N(Y)Z + GSG ---(k2)--> GSC(O)B(Y)Z +
Conditions: Potassium phosphate buffer (50 mM), pH 7.5, 5% ethanol, […]

HL60 cells = conditions: cited from earlier work

N[C@@H](CCC(=O)N[C@@H](CSC(=O)N(O)c1ccc(Cl)cc1)C(=O)NCC(=O)O)C(=O)O [Compound 2, S-(N-p-chlorophenyl N-hydroxycarbamoyl)glutathione]
intracellular uptake in words (L1210 cells): no significant time-dependent increase in intracellular [2]
Ki (human erythrocyte GlxI): 46 nM
logP [1]: < -2

CC[S+]([O-])C(=O)N(C)O (stereo not shown) [Compound 3b]
rate constant relative to thioester 2a [2]: exceed by several-fold that with the thioester 2 a
k2, second order rate constant for acyl-interchange with glutathione ([2]; 50 mM potassium phosphate, pH 7.5, 5% ethanol, 25° C.): 0.59 ± 0.02 mM⁻¹ min⁻¹

C[C@@H](O)C(=O)SC[C@H](NC(=O)CC[C@H](N)C(=O)O)C(=O)NCC(=O)O [S-D-lactoylglutathione]
growth of HL60 cells (HL60 cells; literature (25)): inhibits the growth of HL60 cells in culture

N[C@@H](CCC(=O)N[C@@H](CSCc1ccc(Br)cc1)C(=O)NCC(=O)O)C(=O)O [S-p-bromobenzylglutathione]
effect on human leukemia HL60 cells (HL60 cells; literature): both cytostatic and cytotoxic to these cells
